One experiment relates to hPSC-derived mesoderm. Kind of experiment: Quantitative RT-PCR gene expression of differentiating mesoderm (Example 11). The experiment is classed as cell-based, human. Conditions: longer and higher levels of Wnt activation (CHIR timing). The protocol:
Total RNA was prepared from differentiating human ES cells by using Nucleospin kit according to manufacturer's protocol. Reverse transcription PCR was performed by Superscript VILO cDNA synthesis kit. QuantStudio 5 and 6 were used for qPCR analyses. Statistics were performed with PRISM8 (GraphPad Software). Significance was determined by one-way ANOVA, followed by Tukey's test.
After SpM differentiation, the cells can be observed with an inverted microscope. The cells should be at 100% confluency (FIG. 9A). The efficiency of SpM induction can be checked by immunostaining for FOXF1 and/or ISL1, or expression of relative gene profiles as provided in Table 1.
The efficiency of organ-specific mesoderm differentiation can be checked by immunostaining for WT1, PITX1, FOXF1, NKX6.1, and/or TBX5, or expression of relative gene profiles as provided in Table 1.

In experiment [1] the test system is hPSC-derived lateral plate mesoderm / splanchnic mesoderm cultures. Kind of experiment: RT-PCR of marker genes in hPSC-derived lateral plate/splanchnic mesoderm cultures (Example 9). Conditions: primitive SM treated d4-d7. The experiment is classed as cell-based, human. How it is done:
Differentiation of hPSCs into lateral plate mesoderm was induced using previously described methods with modifications. In brief, partially confluent hPSCs were dissociated into very fine clumps in Accutase (Invitrogen) and passaged 1:18 onto new Geltrex-coated 24-well plates for immunocytochemistry and 12-well plates for RNA preparation in mTeSR1 with 1 μM thiazovivin (Tocris) ([…]). Next day, a brief wash with DMEM/F12 was followed with Day 0 medium (30 ng/mL Activin A (Cell Guidance Systems), 40 ng/mL. BMP4 (R&D Systems), 6 μM CHIR99021 (Tocris), 20 ng/mL FGF2 (Thermo Fisher), 100 nM PIK90 (EMD Millipore)) for 24 hours. A basal media composed of Advanced DMEM/F12, N2, B27, 15 mM HEPES, 2 mM […], penicillin-streptomycin was used for this Day 0 medium and all subsequent differentiations. On Day 1, a brief wash with DMEM/F12 was followed with Day 1 medium (1 μM A83-01 (Tocris), 30 ng/mL BMP4, 1 μM C59 (Cellagen Technology)) for 24 hours. For cardiac mesoderm generation, cells were cultured in 1 μM A83-01, 30 ng/mL BMP4, 1 μM C59, 20 ng/mL FGF2 from Day 2 to Day 4 (medium changed every day). From Day 4, cells were cultured in 200 μg/mL 2-phospho-ascorbic acid (Sigma), 1 μM XAV939 (Sigma), 30 ng/mL BMP4 for 3 days. […] Significance was determined by one-way ANOVA, followed by Tukey's test.

In the case of `Cc1c[nH]c(-c2cnc(NCCNc3ccc(C#N)cn3)nc2-c2ccc(Cl)cc2Cl)n1` [CHIR, CHIR99021], in the experiment with hPSC-derived mesoderm, the NKX6-1 expression entry is “suppressed” and the WNT2 expression entry is listed as “promoted”.
On to `c1ccc2c(Oc3nc(Nc4ccc(N5CCOCC5)cc4)c4ncn(C5CCCCC5)c4n3)cccc2c1` [HH-agonist, purmorphamine], for which the “organ-specific SM-like lineage identity (gene expression)” value in experiment [1] is “promoted gut tube identity and efficiently blocked the hepatic fate”.
